Laboratory results taken from patent publication US12473536B2, “Cultured meat product with genetically modified cells” (Trustees of Tufts College, priority 2019, dated 2025).
Where “and” joins values, the source holds several entries; their conditions need not be identical. Identical values can stand only once.

What was measured:
a range of cell types = details: cited from earlier work
[1] = system: C2C12 mouse skeletal myoblasts; experiment: Carotenoid quantification by quantitative HPLC in engineered C2C12s; type: cell-based; details: pCrtB/I/Y C2C12s
[2] = system: primary bovine satellite cells (BSCs); experiment: Carotenoid quantification by quantitative HPLC in engineered BSCs; type: cell-based; details: for Effect of ketoconazole and puromycin conditioning on β-carotene: pCrtB/I/Y BSCs
C2C12s = experiment: Eight-day cell growth by dsDNA quantitation, C2C12s; type: cell-based, mouse; details: for Growth of engineered cells: over eight days, vs cells engineered with pGFP or pCrtB
Protocol: (§1) Growth and development of engineered cells—Growth of engineered BSCs and C2C12s was analyzed using a dsDNA quantitation kit (ThermoFisher #F2962) on days 1, 2, 4, 6, and 8 of culture. Cells were plated in 96-well plates for each time-point at a density of 1000 cells/well. At each time-point, media was removed from wells and plates were frozen at −80° C. After all time-points were frozen, plates were thawed to room temperature, and 100 uL of UltraPure water (ThermoFisher #10977023) was added to wells. Plates were incubated at 37° C. for one hour, re-frozen to −80° C., and re-thawed to room temperature. Wells were stained with 100 uL of Hoechst 33258 working solution. Fluorescence was measured with a Synergy H1 microplate reader (BioTek Instruments, Winooski, VT, USA) using excitation and emission filters centered at 360 and 460 nm, respectively. In parallel, a 96-well plate was seeded with a range of known cell densities, incubated for 12 hours, and measured using the same protocol to obtain a standard curve and convert fluorescence values to cell number. […]
(§2) Carotenoid optimization—Two methods were explored for optimizing carotenoid production in pCrtB/I/Y cells. […] To determine an appropriate puromycin concentration for increasing enzyme expression, engineered cells were cultured in media containing 2.5 μg/mL puromycin (1× puro), 5 μg/mL puromycin (2× puro) or 10 μg/mL puromycin (4× puro), and relative GFP expression was determined via flow cytometry as a proximate measure of enzyme expression. Briefly, cells were cultured, harvested, and GFP was analyzed using a BD FACSCalibur (BD Sciences) or Attune N×T (ThermoFisher) flow cytometer. Appropriate gating was performed using pGFP and unmodified cells as positive and negative controls, and mean fluorescent intensity was determined. Data were analyzed with the FlowJo software (v10). […]

BSCs [3] = experiment: Eight-day cell growth by dsDNA quantitation, BSCs; type: cell-based, bovine; details: 5 μg/mL, pCrtB/I/Y BSCs, 8-day growth
Protocol: as §1
Carotenoid optimization—Two methods were explored for optimizing carotenoid production in pCrtB/I/Y cells. […] Briefly, cells were cultured, harvested, and GFP was analyzed using a BD FACSCalibur (BD Sciences) or Attune N×T (ThermoFisher) flow cytometer. […] Data were analyzed with the FlowJo software (v10). […]

[4] = system: bovine satellite cells (BSCs); experiment: Adipogenic transdifferentiation of BSCs with free fatty acids (Oil Red O staining); type: cell-based; details: 100 uM to 150 uM
Source text: This adipogenic transdifferentiation protocol will be further optimized through a fractional factorial experimental design, testing various concentrations oleic, myristoleic, linoleic, erucic, and elaidic acid. Lipid accumulation will be verified qualitatively with Oil Red O staining and quantified with the AdipoRed plate reader assay (Lonza). Transdifferentiation of satellite cells into mature adipocytes will enable muscle and fat components of cultured meat to be generated from a single cell source throughout this proposal, thus increasing project efficiency and impact.

pCrtB/I/Y C2C12s = experiment: GFP expression by flow cytometry under puromycin selection, C2C12s; type: cell-based, mouse; details: 4× concentration (10 μg/mL)
Source text: as §2, with “cells. The first focused on increasing gene expression by increasing puromycin selective pressure. The second focused on increasing levels of the carotenoid pathway precursor farnesyl pyrophosphate (FPP) by inhibiting downstream reactions in one of FPP's alternative metabolic pathways—cholesterol synthesis—using the small molecule ketoconazole (Sun et al., 2007). By exploring these two approaches, the possibility for a single approach to fail to address a rate-limiting step in carotenoid production was reduced.” for “cells.”

pCrtB/I/Y BSCs [5] = experiment: GFP expression by flow cytometry under puromycin selection, BSCs; type: cell-based, bovine
Source text: as §2, with “cells. The first focused on increasing gene expression by increasing puromycin selective pressure. The second focused on increasing levels of the carotenoid pathway precursor farnesyl pyrophosphate (FPP) by inhibiting downstream reactions in one of FPP's alternative metabolic pathways—cholesterol synthesis—using the small molecule ketoconazole (Sun et al., 2007). By exploring these two approaches, the possibility for a single approach to fail to address a rate-limiting step in carotenoid production was reduced.” for “cells.”

BSCs [6] = experiment: Four-day growth of BSCs in serum-free B8 media and FGF-2 dilutions; type: cell-based, bovine; details: four days, within B8 media
Protocol: Briefly, B8 media will be comprised of DMEM:F12 (1:1) supplemented with L-ascorbic acid 2-phosphate (200 ug/mL), insulin (20 ug/mL), transferrin (20 ug/mL), sodium selenite (20 ng/mL), FGF-2 (10 ng/mL), neuregulin 1 (NRG-1; 0.1 ng/mL), TGFβ-3 ([…]), and insulin-like growth factor 1 (IGF-1; 10 ng/mL). Formulations absent one or more growth factors will simultaneously generated, as will formulations lacking all growth factors but containing previously reported serum-replacements made from rapeseed peptide fractions, maitake mushroom extract, and silk-derived sericin proteins.

engineered BSCs = experiment: Thiobarbituric acid reactive substances (TBARS) lipid oxidation assay, raw or heated cells; type: cell-based, bovine
Protocol: Lipid oxidation—To analyze the antioxidant functionality of carotenoids in cells, a thiobarbituric acid reactive substances (TBARS) assay was performed. This assay measures malondialdehyde (MDA), a byproduct of unsaturated fatty acid oxidation, and so serves as a measure of lipid oxidation in cells. As lipid oxidation is often catalyzed by the processes that generate oxidative pressure, such as cooking of meat, the TBARS assay was performed on both “raw” cells, and cells that had been heated to mimic cooking. Briefly, engineered BSCs were cultured as previously described, harvested, and counted. 1.5 million cells were aliquoted to tubes for heated or unheated analysis, washed 1× in PBS, pelleted, and the supernatant PBS was removed. Collected cell pellets were stored overnight at 4° C. The next day, samples designated for heating were incubated for 10 minutes in a 100° C. heat block, cooled to room temperature, and placed on ice. All cells (heated and unheated) were suspended in 500 μL of PBS, incubated for 2 hours on ice, and sonicated on ice using a probe sonicator (Branson, St. Louis, MO, USA) at 15% intensity for 5×15 second pulses, with 20 second intervals between pulses. Next, the TBARS assay (Cayman Chemical #700870, Ann Arbor, MI, USA) was performed with 100 μL of sonicated cell lysates, following the manufacturers protocol and determining MDA by measuring absorbance at 535 nm compared to a standard curve of known MDA concentrations. The remainders of the cell lysates were frozen at −80° C. until protein quantification was performed via Bradford assay (ThermoFisher #23200) following the manufacturers protocol. Briefly, 5 μL of cell lysates were incubated for 10 minutes with 250 uL of Coomassie reagent, and the absorbance was measured at 595 nm and compared to a BSA standard curve. TBARS measurements were normalized with protein content for each sample in order to obtain corrected cellular MDA (mg/g protein).

pCrtB/I/Y BSCs [7] = experiment: Pax7 and MHC immunostaining of engineered BSCs before and after differentiation; type: cell-based, bovine
Protocol: Immunofluorescence and cell characterization—To confirm the identity of isolated primary BSCs, cells were stained for Pax7 and Myosin Heavy Chain (MHC) before and after differentiation, respectively. These markers confirm the primary and terminal states of satellite cell myogenesis and therefore act to verify the nature and myogenicity of isolated cells. Proliferative cells and cells after one week of differentiation were fixed with 4% paraformaldehyde (ThermoFisher #AAJ61899AK) for 30 minutes, washed in PBS, permeabilized for 15 minutes using 0.5% Triton X (Sigma #T8787) in PBS, blocked for 45 minutes using 5% goat serum (ThermoFisher #16210064) in PBS with 0.05% sodium azide (Sigma #S2002), and washed with PBS containing 0.1% Tween-20 (Sigma #P1379). […]
Growth and development of engineered cells—Growth of engineered BSCs and C2C12s was analyzed using a dsDNA quantitation kit (ThermoFisher #F2962) on days 1, 2, 4, 6, and 8 of culture. […] Fluorescence was measured with a Synergy H1 microplate reader (BioTek Instruments, Winooski, VT, USA) using excitation and emission filters centered at 360 and 460 nm, respectively. In parallel, a 96-well plate was seeded with a range of known cell densities, incubated for 12 hours, and measured using the same protocol to obtain a standard curve and convert fluorescence values to cell number. […]

pepsin = details: cited from earlier work
[8] = increasing levels of selection antibiotic
[9] = heated samples (10 minutes, 100° C.)

Molecule: C=C(C)[C@@H]1CCC(C)=C[C@H]1c1c(O)cc(CCCCC)cc1O [cannabidiol]
- Treatment range explored without mention of excess cell death (a range of cell types): 1-50 uM and 0.313-15.65 ug/mL

Molecule: CC(=O)N1CCN(c2ccc(OCC3COC(Cn4ccnc4)(c4ccc(Cl)cc4Cl)O3)cc2)CC1 (stereo not drawn) [ketoconazole]
- Effect of ketoconazole and puromycin together on β-carotene [1]: do not significantly increase β-carotene
- Effect of ketoconazole and puromycin conditioning on β-carotene [2]: additive increase in β-carotene
- Effect on growth (C2C12s; 5 μg/mL, pCrtB/I/Y C2C12s, 8-day growth): not significantly effect growth
- Effect on growth (BSCs [3]): not significantly effect growth

Molecule: CCCCC/C=C\C/C=C\CCCCCCCC(=O)O [linoleic acid]
- Lipid accumulation (Oil Red O) [4]: Sparse lipid accumulation

Molecule: COc1ccc(C[C@H](N)C(=O)N[C@H]2[C@@H](O)[C@H](n3cnc4c(N(C)C)ncnc43)O[C@@H]2CO)cc1 [puromycin]
- Effect of ketoconazole and puromycin together on β-carotene [1]: do not significantly increase β-carotene
- Increase in carotenoid levels [2, 8]: ~3 fold
- Effect of ketoconazole and puromycin conditioning on β-carotene [2]: additive increase in β-carotene
- Effect on GFP expression (pCrtB/I/Y C2C12s): significant increase in GFP expression
- Effect on GFP expression (pCrtB/I/Y BSCs [5]; 4× concentration (10 μg/mL), BSCs): significant increase in GFP expression
- Increase in gene expression (as shown by GFP expression) (pCrtB/I/Y BSCs [5]; [8]): two-fold

Molecule: FGF-2: fibroblast growth-factor 2
- FGF-2 concentration showing significantly improved growth vs FGF-2-free B8 media (BSCs [6]): greater than or equal to 1.25 ng/mL

Molecule: pSBbi-(CMV-CrtB-T2A-)-pur [pCrtB]
- Cellular MDA (lipid oxidation) (engineered BSCs; [9]): 3.6 mg/g protein
- Cellular MDA (lipid oxidation) (engineered BSCs; unheated samples): 1.7 mg/g protein

Molecule: pSBbi-(CMV-CrtB-T2A-CrtI-P2A-GFP)-pur [pCrtB/I]
- Cellular MDA (lipid oxidation) (engineered BSCs; [9]): 1.7 mg/g protein
- Cellular MDA (lipid oxidation) (engineered BSCs; unheated samples): 1.0 mg/g protein
- Growth of engineered cells (C2C12s): higher growth over eight days

Molecule: pSBbi-(CMV-CrtY-T2A-CrtB-T2A-CrtI-P2A-GFP)-pur [pCrtB/I/Y]
- Cellular MDA (lipid oxidation) (engineered BSCs; [9]): 2.3 mg/g protein
- Cellular MDA (lipid oxidation) (engineered BSCs; unheated samples): 1.1 mg/g protein
- Growth of engineered cells (C2C12s): higher growth over eight days
- Myogenic potential (Pax7 and MHC staining) (pCrtB/I/Y BSCs [7]): maintenance of Pax7 expression and MHC-positive myotube formation

B1: V565: anti-TNFα nanobody V565 (SEQ ID NO:7) (protein)
VHH: DVQLVESGGGLVQPGGSLKLSCAASGFDFSSHWMYWVRQAPGKELEWLSEINTNGLITHYGDSVKGRFTVSRNNAANKMYLELTRLEPEDTALYYCARNQHGLNKGQGTQVTVSS
- Sensitivity to pepsin (pepsin): sensitive to pepsin
- Stability in the gastric environment (pepsin): largely stable in the gastric environment
